# Test results: patent US20260201347A1, “ARTIFICIAL BIFUNCTIONAL ENZYME COMPRISING A MYELOPEROXIDASE ACTIVITY AND A GLUCOSE OXIDASE ACTIVITY AND APPLICATIONS THEREOF” (UNIVERSITÉ DE BORDEAUX, priority 2022, published 2026)
# Where “and” joins values, the source holds several entries; their conditions need not be identical. Identical values can stand only once. Like-named read-outs stand apart in the source and are kept apart here.
# Experiments:
# [1] = molecular target: RbMPO-LEKREAEALEKREAEA-GOx chimera (Rhodopirellula baltica myeloperoxidase, SEQ ID NO: 10); linker SEQ ID NO: 6; Penicillium amagasakiens glucose oxidase, SEQ ID (Penicillium amagasakiense, UniProt P81156); conditions: 20 mM NaCl, pH7.5; for Km: read-out: KM H2O2; for Ki: read-out: Ki H2O2, substrate inhibition
# Target sequence in this assay (P81156 with tags, fused parts or gaps): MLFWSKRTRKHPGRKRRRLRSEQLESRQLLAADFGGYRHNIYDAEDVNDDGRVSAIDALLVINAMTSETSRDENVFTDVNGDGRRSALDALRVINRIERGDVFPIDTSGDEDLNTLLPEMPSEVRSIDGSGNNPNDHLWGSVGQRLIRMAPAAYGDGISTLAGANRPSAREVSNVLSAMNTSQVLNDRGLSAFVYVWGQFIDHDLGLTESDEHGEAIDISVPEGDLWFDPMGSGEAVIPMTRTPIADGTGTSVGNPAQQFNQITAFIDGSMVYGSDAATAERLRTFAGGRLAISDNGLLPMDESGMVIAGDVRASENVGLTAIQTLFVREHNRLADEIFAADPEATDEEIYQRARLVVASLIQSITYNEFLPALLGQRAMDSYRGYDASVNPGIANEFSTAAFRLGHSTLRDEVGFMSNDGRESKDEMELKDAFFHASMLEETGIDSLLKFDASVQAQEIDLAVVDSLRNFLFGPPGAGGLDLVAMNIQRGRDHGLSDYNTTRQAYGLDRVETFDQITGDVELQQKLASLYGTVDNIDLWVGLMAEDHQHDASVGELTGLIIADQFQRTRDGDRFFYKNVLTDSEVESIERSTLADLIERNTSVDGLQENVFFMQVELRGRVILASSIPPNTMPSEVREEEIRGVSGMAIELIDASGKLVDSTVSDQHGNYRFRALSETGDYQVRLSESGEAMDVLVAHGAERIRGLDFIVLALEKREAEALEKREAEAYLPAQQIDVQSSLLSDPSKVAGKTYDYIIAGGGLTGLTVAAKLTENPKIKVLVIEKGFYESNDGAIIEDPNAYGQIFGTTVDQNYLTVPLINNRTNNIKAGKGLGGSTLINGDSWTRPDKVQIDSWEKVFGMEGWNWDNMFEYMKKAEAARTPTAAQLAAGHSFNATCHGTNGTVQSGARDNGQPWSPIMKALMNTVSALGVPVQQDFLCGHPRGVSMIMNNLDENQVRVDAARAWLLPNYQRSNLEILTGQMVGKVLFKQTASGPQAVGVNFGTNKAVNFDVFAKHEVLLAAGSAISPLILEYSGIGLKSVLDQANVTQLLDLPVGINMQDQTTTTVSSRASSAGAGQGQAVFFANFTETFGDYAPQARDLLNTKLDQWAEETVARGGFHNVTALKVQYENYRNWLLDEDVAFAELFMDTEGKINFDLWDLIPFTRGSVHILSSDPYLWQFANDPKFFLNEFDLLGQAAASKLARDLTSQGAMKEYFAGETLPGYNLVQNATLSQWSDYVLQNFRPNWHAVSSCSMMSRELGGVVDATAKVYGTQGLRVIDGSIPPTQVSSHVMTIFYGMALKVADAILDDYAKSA
# Experimental: The fluorescent probe aminophenyl fluorescein (APF) (λexcitation=485 nm and λemission=525 nm) was used to measure the HOCl production by the chimera, as a measure of its chlorination activity. […] For all experiments, 10 μM APF was used in each assay with 50 mM NaPi buffer pH7.5 QSP 20 μL (384-well plate). Each experiment was performed in triplicate. A 10-30 min. kinetic was performed for each range value and the increase rate of fluorescence intensity was compared to the standard fluorescein range. The measured fluorescence per second was thus proportional to the amount of fluorescein, which in turn was proportional to the amount of HOCl produced by the chimeras.
# [2] = test system: RbMPO-LGKRGAGA-GOx chimera (Rhodopirellula baltica myeloperoxidase, SEQ ID NO: 10; linker SEQ ID NO: 5; Penicillium amagasakiens glucose oxidase, SEQ ID NO: 12); conditions: result in words
# Experimental: (§1) The fluorescent probe aminophenyl fluorescein (APF) (λexcitation=485 nm and λemission=525 nm) was used to measure the HOCl production by the chimera, as a measure of its chlorination activity. Three tests were performed: (1) at different glucose concentrations (0, 1, 2, 3, 4, 5, 6, 8, 10, 15, 20 mM) with fixed concentrations of chimera (1 μM) and NaCl (20 mM); (2) at different NaCl concentrations (0, 10, 20, 50, 100, 250, 500, 750 μM and 1 mM) with fixed concentrations of chimera (1 μM) and glucose (20 mM); (3) at different H2O2 concentrations (0, 0.01, 0.02, 0.05, 0.079, 0.1, 0.25, 0.5, 0.75, 1, 2, 4, 6, 8, 10, 20, 40, 60, 80, 100, 200, 500 mM) with fixed concentrations of chimera (1 μM) and NaCl (20 mM). For all experiments, 10 μM APF was used in each assay with 50 mM NaPi buffer pH7.5 QSP 20 μL (384-well plate). Each experiment was performed in triplicate. A 10-30 min. kinetic was performed for each range value and the increase rate of fluorescence intensity was compared to the standard fluorescein range. The measured fluorescence per second was thus proportional to the amount of fluorescein, which in turn was proportional to the amount of HOCl produced by the chimeras.
# (§2) Steady-state kinetic parameters were determined by adjustment of experimental data to the following equations depending on the appearance of saturation curves: […]
# [3] = molecular target: T1, RbMPO-LEGGEAEA-GOx chimera (Rhodopirellula baltica myeloperoxidase, SEQ ID NO: 10; linker SEQ ID NO: 4; Penicillium amagasakiens glucose oxidase, SEQ ID NO: 12) (Penicillium amagasakiense, UniProt P81156)
# Experimental: as §1, §2
# (§3) In order to determine the RbMPO activity of the chimeras, a H2O2 concentration range was performed at a fixed concentration of NaCl. HOCl reacted with APF probe and apparition of fluorescein was monitored.
# [4] = molecular target: RbMPO-GGGGGGGG-GOx chimera (Rhodopirellula baltica myeloperoxidase, SEQ ID NO: 10; linker SEQ ID NO: 9; Penicillium amagasakiens glucose oxidase, SEQ ID NO: 12) (Penicillium amagasakiense, UniProt P81156); conditions: 20 mM NaCl, pH7.5; for Km: read-out: KM H2O2; for Ki: read-out: Ki H2O2, substrate inhibition
# Experimental: as §1, §2, §3
# [5] = molecular target: RbMPO-LEKRPEAEA-GOx chimera (Rhodopirellula baltica myeloperoxidase, SEQ ID NO: 10); linker SEQ ID NO: 8; Penicillium amagasakiens glucose oxidase, SEQ ID NO: 12 (Penicillium amagasakiense, UniProt P81156); conditions: 20 mM NaCl, pH7.5; for Km: read-out: KM H2O2; for Ki: read-out: Ki H2O2, substrate inhibition
# Experimental: as §1, §2, §3
# [6] = molecular target: RbMPO-LEKREAEA-GOx chimera (Rhodopirellula baltica myeloperoxidase, SEQ ID NO: 10; linker SEQ ID NO: 7; Penicillium amagasakiens glucose oxidase, SEQ ID NO: 12) (Penicillium amagasakiense, UniProt P81156); conditions: trimer, 20 mM NaCl, pH7.5
# Experimental: as §1, §2, §3
# [7] = molecular target: T2, RbMPO-GOx chimera, no linker (Rhodopirellula baltica myeloperoxidase, SEQ ID NO: 10, fused to Penicillium amagasakiens glucose oxidase, SEQ ID NO: 12) (Penicillium amagasakiense, UniProt P81156); conditions: monomer, 20 mM NaCl, pH7.5
# Experimental: as §1, §2, §3
# Target sequence in this assay (P81156 other isoform, or with tags, fused parts or gaps): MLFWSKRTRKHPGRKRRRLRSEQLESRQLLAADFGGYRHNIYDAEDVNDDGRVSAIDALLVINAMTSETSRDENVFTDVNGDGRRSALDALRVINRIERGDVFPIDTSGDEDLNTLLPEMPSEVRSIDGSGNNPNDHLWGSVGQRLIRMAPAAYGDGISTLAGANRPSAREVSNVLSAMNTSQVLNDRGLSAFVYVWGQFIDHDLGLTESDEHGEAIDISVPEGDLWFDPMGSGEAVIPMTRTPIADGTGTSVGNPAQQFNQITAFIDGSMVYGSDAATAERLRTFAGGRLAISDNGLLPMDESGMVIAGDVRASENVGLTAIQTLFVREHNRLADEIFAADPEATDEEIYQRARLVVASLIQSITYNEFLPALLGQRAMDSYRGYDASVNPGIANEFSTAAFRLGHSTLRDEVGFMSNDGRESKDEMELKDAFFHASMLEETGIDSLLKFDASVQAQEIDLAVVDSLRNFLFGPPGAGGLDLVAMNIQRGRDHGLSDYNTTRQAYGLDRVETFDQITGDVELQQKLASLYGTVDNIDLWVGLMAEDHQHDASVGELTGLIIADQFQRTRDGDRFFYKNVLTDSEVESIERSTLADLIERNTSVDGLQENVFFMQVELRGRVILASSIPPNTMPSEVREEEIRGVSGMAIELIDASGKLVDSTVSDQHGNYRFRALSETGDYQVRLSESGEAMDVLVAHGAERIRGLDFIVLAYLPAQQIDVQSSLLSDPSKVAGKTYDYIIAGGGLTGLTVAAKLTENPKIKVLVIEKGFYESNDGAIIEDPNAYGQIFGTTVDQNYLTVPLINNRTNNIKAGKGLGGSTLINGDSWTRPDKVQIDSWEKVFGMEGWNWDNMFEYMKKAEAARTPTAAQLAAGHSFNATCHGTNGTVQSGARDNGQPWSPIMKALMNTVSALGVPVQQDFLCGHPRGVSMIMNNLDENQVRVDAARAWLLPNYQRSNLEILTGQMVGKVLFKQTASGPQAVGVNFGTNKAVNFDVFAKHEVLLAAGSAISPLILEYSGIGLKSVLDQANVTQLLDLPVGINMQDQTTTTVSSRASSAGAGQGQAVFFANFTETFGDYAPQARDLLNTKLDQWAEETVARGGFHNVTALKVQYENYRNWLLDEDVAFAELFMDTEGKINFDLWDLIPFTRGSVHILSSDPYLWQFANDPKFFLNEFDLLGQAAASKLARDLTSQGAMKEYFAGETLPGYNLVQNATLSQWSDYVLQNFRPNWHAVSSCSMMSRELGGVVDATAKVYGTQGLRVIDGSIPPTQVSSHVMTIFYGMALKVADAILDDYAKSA
# [8] = molecular target: T3, RbMPO-LEKREAEALEKREAEA-GOx chimera (Rhodopirellula baltica myeloperoxidase, SEQ ID NO: 10); linker SEQ ID NO: 6; Penicillium amagasakiens glucose oxidase, SEQ ID (Penicillium amagasakiense, UniProt P81156); experiment: Coupled active sites, HOCl production from glucose, APF assay (Table 9), linker LEKREAEALEKREAEA; format: biochemical; conditions: dimer/monomer; fixed NaCl 20 mM, pH7.5
# T3 construct: 6His (in the pET21a vector behind the XhoI site); made in house; host or cells: E. coli BL21Star (DE3)
# Experimental: (§4) Each experiment was performed in triplicate.
# (§5) The activity of the two active sites was then assessed in conjunction to each other (FIG. 1).
# (§6) Briefly, the aim was to measure the production of HOCl from glucose and NaCl as respective substrates of the enzymes, using the APF probe. Two types of kinetics were performed: • i) kinetics at various concentrations of glucose and a fixed concentration of NaCl, and • ii) kinetics at various concentration of NaCl and a fixed concentration of glucose.
# [9] = molecular target: T2, RbMPO-GOx chimera, no linker (Rhodopirellula baltica myeloperoxidase, SEQ ID NO: 10, fused to Penicillium amagasakiens glucose oxidase, SEQ ID NO: 12); experiment: Coupled active sites, HOCl production from glucose, APF assay (Table 9), chimera without linker; format: biochemical; design: heme and FAD reconstituted; monomer; GOx mature part (P81156 19-605); conditions: monomer; fixed NaCl 20 mM, pH7.5
# Experimental: as §4, §5, §6
# Target sequence in this assay (P81156 19-605, change not shown): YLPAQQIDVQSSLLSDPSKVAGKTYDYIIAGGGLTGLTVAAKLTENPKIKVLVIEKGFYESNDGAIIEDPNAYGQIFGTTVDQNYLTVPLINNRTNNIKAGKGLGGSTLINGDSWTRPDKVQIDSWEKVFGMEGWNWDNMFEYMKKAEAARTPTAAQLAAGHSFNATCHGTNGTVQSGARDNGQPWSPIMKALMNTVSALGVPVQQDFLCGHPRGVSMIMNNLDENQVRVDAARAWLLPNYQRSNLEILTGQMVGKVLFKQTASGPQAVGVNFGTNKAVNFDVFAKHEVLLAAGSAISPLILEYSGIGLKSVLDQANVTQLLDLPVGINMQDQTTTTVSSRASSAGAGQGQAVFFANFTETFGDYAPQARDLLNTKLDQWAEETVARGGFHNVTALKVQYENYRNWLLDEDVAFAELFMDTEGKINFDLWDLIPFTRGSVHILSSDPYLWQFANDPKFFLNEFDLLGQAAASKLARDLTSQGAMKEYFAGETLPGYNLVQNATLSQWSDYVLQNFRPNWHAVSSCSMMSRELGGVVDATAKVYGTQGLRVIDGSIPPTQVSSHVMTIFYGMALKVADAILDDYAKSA
# [10] = molecular target: T4, RbMPO-LGKRGAGA-GOx chimera (Rhodopirellula baltica myeloperoxidase, SEQ ID NO: 10; linker SEQ ID NO: 5; Penicillium amagasakiens glucose oxidase, SEQ ID NO: 12) (Penicillium amagasakiense, UniProt P81156); experiment: Coupled active sites, HOCl production from glucose, APF assay (Table 9), linker LGKRGAGA; format: biochemical; conditions: trimer; fixed NaCl 20 mM, pH7.5
# T4 construct: 6His (in the pET21a vector behind the XhoI site); made in house; host or cells: E. coli BL21Star (DE3)
# Experimental: as §4, §5, §6
# [11] = molecular target: T1, RbMPO-LEGGEAEA-GOx chimera (Rhodopirellula baltica myeloperoxidase, SEQ ID NO: 10; linker SEQ ID NO: 4; Penicillium amagasakiens glucose oxidase, SEQ ID NO: 12); experiment: Coupled active sites, HOCl production from glucose, APF assay (Table 9), linker LEGGEAEA; format: biochemical; design: 6His (in the pET21a vector behind the XhoI site); made in house; host or cells: E. coli BL21Star (DE3)
# Experimental: as §4, §5, §6
# [12] = molecular target: T1, RbMPO-LEGGEAEA-GOx chimera (Rhodopirellula baltica myeloperoxidase, SEQ ID NO: 10; linker SEQ ID NO: 4; Penicillium amagasakiens glucose oxidase, SEQ ID NO: 12); conditions: monomer 1, NaSCN as a substrate, 50 mM glucose, pH6, 37° C.
# Experimental: Initial rate measurements under steady state conditions were made with a BioLogic SFM400 stopped-flow by using a single-mixing mode and Xe/Hg lamp and a TC100/10 cell. One syringe was filled with the chimera and another one with glucose and NaSCN. The concentrations of the chimera and glucose were fixed (300 nM and 50 mM, respectively), and measurement was carried out at 37° C. and at 240 nm. The appearance of −OSCN (hypothiocyanate) was measured at 240 nm at 37° C. in a 50 mM pH6 sodium phosphate buffer. At least five shots of 120 s were performed for each value of the NaSCN substrate range with the following sample period: 20 μs, 20 ms, 20 ms with 2000 points per period. Slopes were calculated from shots average for each concentration and kss (s^−1) were determined using slopes with the following formula:
# The molar extinction coefficient of −OSCN is ε−OSCN=[…]. Collecting data were analysed with Origin software and kss values were fitted with Michaëlis-Menten equation.
# [13] = read-out: Ki H2O2, substrate inhibition
# [14] = mixture of oligomers, 15 mM glucose and 500 mM NaCl
# T1 sequence (P81156 with tags, fused parts or gaps): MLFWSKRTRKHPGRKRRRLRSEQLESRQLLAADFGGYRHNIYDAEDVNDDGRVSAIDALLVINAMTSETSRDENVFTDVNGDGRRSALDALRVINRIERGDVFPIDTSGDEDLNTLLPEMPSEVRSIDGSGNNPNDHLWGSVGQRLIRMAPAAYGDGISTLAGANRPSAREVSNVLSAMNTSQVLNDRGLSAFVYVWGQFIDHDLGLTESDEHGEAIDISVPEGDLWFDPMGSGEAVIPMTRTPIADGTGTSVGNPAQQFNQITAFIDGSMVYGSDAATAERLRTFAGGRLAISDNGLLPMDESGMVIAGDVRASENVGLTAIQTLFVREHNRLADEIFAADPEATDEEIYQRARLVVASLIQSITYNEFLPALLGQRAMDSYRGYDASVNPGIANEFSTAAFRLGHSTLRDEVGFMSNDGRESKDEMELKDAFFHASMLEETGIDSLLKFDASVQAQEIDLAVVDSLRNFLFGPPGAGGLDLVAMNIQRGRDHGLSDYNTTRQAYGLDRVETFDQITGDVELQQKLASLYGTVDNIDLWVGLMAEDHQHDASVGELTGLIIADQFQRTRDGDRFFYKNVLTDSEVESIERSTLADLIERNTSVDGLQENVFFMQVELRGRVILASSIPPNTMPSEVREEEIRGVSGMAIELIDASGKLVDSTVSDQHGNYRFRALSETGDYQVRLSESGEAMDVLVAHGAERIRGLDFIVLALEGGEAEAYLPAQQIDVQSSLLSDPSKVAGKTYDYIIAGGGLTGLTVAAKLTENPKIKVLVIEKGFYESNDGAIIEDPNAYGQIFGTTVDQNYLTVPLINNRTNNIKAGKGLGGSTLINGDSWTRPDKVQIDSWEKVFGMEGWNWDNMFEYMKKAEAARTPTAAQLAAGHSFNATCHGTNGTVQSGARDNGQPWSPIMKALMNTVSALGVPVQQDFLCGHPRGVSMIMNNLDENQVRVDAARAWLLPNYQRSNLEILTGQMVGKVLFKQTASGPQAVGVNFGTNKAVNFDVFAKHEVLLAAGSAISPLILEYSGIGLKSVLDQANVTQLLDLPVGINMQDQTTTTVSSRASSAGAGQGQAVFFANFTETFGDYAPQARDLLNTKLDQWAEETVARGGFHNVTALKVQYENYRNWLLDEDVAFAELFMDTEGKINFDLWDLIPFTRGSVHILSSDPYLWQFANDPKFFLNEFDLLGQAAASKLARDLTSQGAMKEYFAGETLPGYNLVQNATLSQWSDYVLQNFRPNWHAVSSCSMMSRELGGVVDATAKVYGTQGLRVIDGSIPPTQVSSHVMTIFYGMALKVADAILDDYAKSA
smiles,measurement,setting,value
"OO [H2O2, hydrogen peroxide]",kcat,[1]; dimer/monomer,0.00374 s⁻¹
same,kcat/KM,[1]; dimer/monomer,1508 ± 19.4 M⁻¹ s⁻¹ and 1508 ± 107 M⁻¹ s⁻¹
same,kss/[H2O2],[1]; excluded,0.0051 ± 0.00035 M⁻¹ s⁻¹
same,Km,[1]; dimer/monomer,2.48 µM
same,Km,[1]; trimer,13 ± 1 µM
same,Ki,[1]; dimer/monomer,4.63 ± 1.05 mM
same,Ki,[1]; trimer,0.597 ± 0.211 mM
same,kcat,[1]; trimer,0.0047 s⁻¹
same,kcat/KM,[1]; trimer,361.5 ± 64.5 M⁻¹ s⁻¹
same,inhibition by H2O2,[2],weak inhibition
same,kcat,"[3]; monomer 1, 20 mM NaCl, pH7.5",0.0003086 s⁻¹
same,kcat/KM,"[3]; monomer 1, 20 mM NaCl, pH7.5",34.2 ± 19.4 M⁻¹ s⁻¹
same,Km,"[3]; read-out: KM H2O2, monomer 1, 20 mM NaCl, pH7.5",9.02 µM
same,Ki,"[3]; read-out: Ki H2O2, monomer 1, 20 mM NaCl, pH7.5, substrate inhibition",34.9 ± 12.6 mM
same,inhibition by H2O2,[3]; result in words,weak inhibition
same,kcat,[4]; dimer/monomer,0.00418 s⁻¹
same,kcat/KM,[4]; dimer/monomer,363.5 ± 382.3 M⁻¹ s⁻¹
same,kcat,[4]; excluded,0.0001682 s⁻¹
same,kcat/KM,[4]; excluded,1 ± 0.6 M⁻¹ s⁻¹ and 0.998 ± 0.603 M⁻¹ s⁻¹
same,kcat,[4]; monomer,0.0001798 s⁻¹
same,kcat/KM,[4]; monomer,38.3 ± 23.6 M⁻¹ s⁻¹
same,Km,[4]; dimer/monomer,11.5 µM
same,Km,[4]; excluded,168 ± 81 µM
same,Km,[4]; monomer,4.7 µM
same,Km,[4]; trimer,2.86 µM
same,Ki,[4]; dimer/monomer,0.0329 mM
same,Ki,[4]; monomer,13.1 ± 4.9 mM
same,Ki,[4]; trimer,5.92 ± 3.22 mM
same,kcat,[4]; trimer,0.0005086 s⁻¹
same,kcat/KM,[4]; trimer,177.8 ± 133.1 M⁻¹ s⁻¹
same,kcat,[5]; dimer/monomer,0.000576 s⁻¹
same,kcat/KM,[5]; dimer/monomer,16.08 ± 17.15 M⁻¹ s⁻¹
same,kcat,[5]; excluded,0.0001553 s⁻¹
same,kcat/KM,[5]; excluded,6.82 ± 4.27 M⁻¹ s⁻¹
same,Km,[5]; dimer/monomer,36 ± 25 µM
same,Km,[5]; excluded,23 ± 11 µM
same,Km,[5]; trimer,704 ± 448 µM
same,Ki,[5]; dimer/monomer,6.3 ± 3.33 mM
same,Ki,[5]; excluded,17.3 ± 10.6 mM
same,Ki,[5]; trimer,35.9 ± 22.2 mM
same,kcat,[5]; trimer,0.0003 s⁻¹
same,kcat/KM,[5]; trimer,0.426 ± 0.365 M⁻¹ s⁻¹
same,Km,[6]; read-out: KM H2O2,45 ± 15 µM
same,Ki,[6]; [13],2.12 ± 1.7 mM
same,kcat,[6],0.000587 s⁻¹
same,kcat/KM,[6],13.04 ± 6.51 M⁻¹ s⁻¹
same,kcat,[7],0.0012 s⁻¹
same,kcat/KM,[7],4.44 ± 3.15 M⁻¹ s⁻¹
same,Km,[7]; read-out: KM H2O2,270 ± 140 µM
same,Ki,[7]; [13],1.91 ± 0.48 mM
OC[C@H]1OC(O)[C@H](O)[C@@H](O)[C@@H]1O (stereo partly drawn) [glucose],kcat/KM glucose,[8],2.47 ± 1.58 M⁻¹ s⁻¹
same,Km,[9],3020 ± 770 µM
same,kcat,[9],3.09e-05 s⁻¹
same,kcat/KM glucose,[10],1.1 ± 0.8 M⁻¹ s⁻¹
same,kss,[11]; [14],around 10^−3 s^−1
same,kss/[Glucose],[11]; [14],10^−3 M^−1·s^−1
same,kcat/KM glucose,"[11]; monomer 2, fixed NaCl 20 mM, pH7.5",2.73 ± 1.5 M⁻¹ s⁻¹
"N#CS [SCN, thiocyanate]",kcat,[12],0.31 s⁻¹
same,kcat/KM,[12],1409 M⁻¹ s⁻¹
same,Km,[12]; read-out: KM SCN,220 µM
